{"source": "patent US20260262643A1", "about": "“HERBICIDAL BENZOXAZINES” (FMC CORPORATION, priority 2022, published 2026)", "key": {"blackgrass [1]": {"test_system": "blackgrass", "experiment": "Test A preemergence", "type": "in vivo, Alopecurus myosuroides", "outline": "(§1)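 Weeds and crops in loam–sand blend were sprayed preemergence onto soil or postemergence at 2–10 cm (one- to two-leaf stage). Test chemicals were in a non-phytotoxic solvent with surfactant. After 10 days in the greenhouse, injury was rated visually against untreated controls on a 0 (no effect) to 100 (complete control) scale.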"}, "horseweed": {"test_system": "horseweed", "experiment": "Test A postemergence", "type": "in vivo, Erigeron canadensis", "settings": "postemergence, 10 days", "outline": "as §1"}, "ragweed [2]": {"test_system": "ragweed", "experiment": "Test A postemergence", "type": "in vivo, Ambrosia artemisiifolia", "settings": "postemergence, 10 days", "outline": "as §1"}, "galium": {"test_system": "galium", "experiment": "Test A postemergence", "type": "in vivo, Galium aparine", "settings": "postemergence, 10 days", "outline": "as §1"}, "foxtail, giant [3]": {"test_system": "foxtail, giant", "experiment": "Test A postemergence", "type": "in vivo, Setaria faberi", "settings": "postemergence, 10 days", "outline": "as §1"}, "soybean [4]": {"test_system": "soybean", "experiment": "Test A preemergence", "type": "in vivo, Glycine max", "outline": "as §1"}, "oat, wild [5]": {"test_system": "oat, wild", "experiment": "Test A preemergence", "type": "in vivo, Avena fatua", "outline": "as §1"}, "pigweed, palmer [6]": {"test_system": "pigweed, palmer", "experiment": "Test A preemergence", "type": "in vivo, Amaranthus palmeri", "outline": "as §1"}, "goosegrass [7]": {"test_system": "goosegrass", "experiment": "Test A postemergence", "type": "in vivo, Eleusine indica", "settings": "postemergence, 10 days", "outline": "as §1"}, "wheat [8]": {"test_system": "wheat", "experiment": "Test A postemergence", "type": "in vivo, Triticum aestivum", "settings": "postemergence, 10 days", "outline": "as §1"}, "pigweed, palmer [9]": {"test_system": "pigweed, palmer", "experiment": "Test A postemergence", "type": "in vivo, Amaranthus palmeri", "settings": "postemergence, 10 days", "outline": "as §1"}, "corn [10]": {"test_system": "corn", "experiment": "Test A preemergence", "type": "in vivo, Zea mays", "outline": "as §1"}, "rice": {"test_system": "rice", "experiment": "Test B flooded paddy test", "type": "in vivo, Oryza sativa", "settings": "250 g ai/ha, Flood, 13 days, 0 to 100 scale (0 no effect, 100 complete control)", "outline": "(§2)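 Species grown to 2-leaf stage; pots flooded 3 cm above soil and compound applied directly to paddy water, depth maintained throughout. After 13 days in greenhouse, plants visually rated against controls on 0–100 scale (0 no effect, 100 complete control); dash means no result.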"}, "ryegrass, Italian [11]": {"test_system": "ryegrass, Italian", "experiment": "Test A preemergence", "type": "in vivo, Lolium multiflorum", "outline": "as §1"}, "wheat [12]": {"test_system": "wheat", "experiment": "Test A preemergence", "type": "in vivo, Triticum aestivum", "outline": "as §1"}, "ducksalad": {"test_system": "ducksalad", "experiment": "Test B flooded paddy test", "type": "in vivo, Heteranthera limosa", "settings": "250 g ai/ha, Flood, 13 days, 0 to 100 scale (0 no effect, 100 complete control)", "outline": "as §2"}, "ragweed [13]": {"test_system": "ragweed", "experiment": "Test A preemergence", "type": "in vivo, Ambrosia artemisiifolia", "outline": "as §1"}, "goosegrass [14]": {"test_system": "goosegrass", "experiment": "Test A preemergence", "type": "in vivo, Eleusine indica", "outline": "as §1"}, "corn [15]": {"test_system": "corn", "experiment": "Test A postemergence", "type": "in vivo, Zea mays", "settings": "postemergence, 10 days", "outline": "as §1"}, "sedge, umbrella": {"test_system": "sedge, umbrella", "experiment": "Test B flooded paddy test", "type": "in vivo, Cyperus difformis", "settings": "250 g ai/ha, Flood, 13 days, 0 to 100 scale (0 no effect, 100 complete control)", "outline": "as §2"}, "foxtail, giant [16]": {"test_system": "foxtail, giant", "experiment": "Test A preemergence", "type": "in vivo, Setaria faberi", "outline": "as §1"}, "ryegrass, Italian [17]": {"test_system": "ryegrass, Italian", "experiment": "Test A postemergence", "type": "in vivo, Lolium multiflorum", "settings": "postemergence, 10 days", "outline": "as §1"}, "barnyardgrass": {"test_system": "barnyardgrass", "experiment": "Test B flooded paddy test", "type": "in vivo, Echinochloa crus-galli", "settings": "250 g ai/ha, Flood, 13 days, 0 to 100 scale (0 no effect, 100 complete control)", "outline": "as §2"}, "soybean [18]": {"test_system": "soybean", "experiment": "Test A postemergence", "type": "in vivo, Glycine max", "settings": "postemergence, 10 days", "outline": "as §1"}, "blackgrass [19]": {"test_system": "blackgrass", "experiment": "Test A postemergence", "type": "in vivo, Alopecurus myosuroides", "settings": "postemergence, 10 days", "outline": "as §1"}, "kochia": {"test_system": "kochia", "experiment": "Test A postemergence", "type": "in vivo, Bassia scoparia", "settings": "postemergence, 10 days", "outline": "as §1"}, "oat, wild [20]": {"test_system": "oat, wild", "experiment": "Test A postemergence", "type": "in vivo, Avena fatua", "settings": "postemergence, 10 days", "outline": "as §1"}, "[21]": {"settings": "125 g ai/ha, visual injury after 10 days, 0 to 100 scale, 0 is no effect, 100 is complete control"}, "[22]": {"settings": "500 g ai/ha, 0 to 100 scale (0 no effect, 100 complete control), 10 days"}, "[23]": {"settings": "125 g ai/ha, 0 to 100 scale, 0 no effect, 100 complete control"}, "[24]": {"settings": "500 g ai/ha, visual injury, 0 to 100 scale (0 no effect, 100 complete control)"}}}
{"smiles": "C[C@H]1CN(C(=O)c2cccc(-n3cnc(CC4CCCCC4)n3)c2)c2cccc(Cl)c2O1", "note": "[Compound 90]", "values": [{"measurement": "Plant response rating, Blackgrass", "setting": "blackgrass [1]; [21]", "result": 0}, {"measurement": "Plant response rating, Blackgrass", "setting": "blackgrass [1]; [22]", "result": 0}, {"measurement": "Horseweed plant response rating", "setting": "horseweed; [23]", "result": 0}, {"measurement": "Plant response rating, Horseweed", "setting": "horseweed; [24]", "result": 0}, {"measurement": "Ragweed plant response rating", "setting": "ragweed [2]; [23]", "result": 0}, {"measurement": "Plant response rating, Ragweed", "setting": "ragweed [2]; [24]", "result": 0}, {"measurement": "Galium plant response rating", "setting": "galium; [23]", "result": 0}, {"measurement": "Plant response rating, Galium", "setting": "galium; [24]", "result": 0}, {"measurement": "Foxtail, Giant plant response rating", "setting": "foxtail, giant [3]; [23]", "result": 0}, {"measurement": "Plant response rating, Foxtail, Giant", "setting": "foxtail, giant [3]; [24]", "result": 0}, {"measurement": "Plant response rating, Soybean", "setting": "soybean [4]; [21]", "result": 0}, {"measurement": "Plant response rating, Soybean", "setting": "soybean [4]; [22]", "result": 0}, {"measurement": "Plant response rating, Oat, Wild", "setting": "oat, wild [5]; [21]", "result": 0}, {"measurement": "Plant response rating, Oat, Wild", "setting": "oat, wild [5]; [22]", "result": 0}, {"measurement": "Plant response rating, Pigweed, Palmer", "setting": "pigweed, palmer [6]; [21]", "result": 0}, {"measurement": "Plant response rating, Pigweed, Palmer", "setting": "pigweed, palmer [6]; [22]", "result": 0}, {"measurement": "Goosegrass plant response rating", "setting": "goosegrass [7]; [23]", "result": 0}, {"measurement": "Plant response rating, Goosegrass", "setting": "goosegrass [7]; [24]", "result": 0}, {"measurement": "Wheat plant response rating", "setting": "wheat [8]; [23]", "result": 10}, {"measurement": "Plant response rating, Wheat", "setting": "wheat [8]; [24]", "result": 10}, {"measurement": "Pigweed, Palmer plant response rating", "setting": "pigweed, palmer [9]; [23]", "result": 0}, {"measurement": "Plant response rating, Pigweed, Palmer", "setting": "pigweed, palmer [9]; [24]", "result": 50}, {"measurement": "Plant response rating, Corn", "setting": "corn [10]; [21]", "result": 0}, {"measurement": "Plant response rating, Corn", "setting": "corn [10]; [22]", "result": 0}, {"measurement": "Plant response rating, Rice", "setting": "rice", "result": 0}, {"measurement": "Plant response rating, Ryegrass, Italian", "setting": "ryegrass, Italian [11]; [21]", "result": 0}, {"measurement": "Plant response rating, Ryegrass, Italian", "setting": "ryegrass, Italian [11]; [22]", "result": 0}, {"measurement": "Plant response rating, Wheat", "setting": "wheat [12]; [21]", "result": 0}, {"measurement": "Plant response rating, Wheat", "setting": "wheat [12]; [22]", "result": 0}, {"measurement": "Plant response rating, Ducksalad", "setting": "ducksalad", "result": 0}, {"measurement": "Plant response rating, Ragweed", "setting": "ragweed [13]; [21]", "result": 0}, {"measurement": "Plant response rating, Ragweed", "setting": "ragweed [13]; [22]", "result": 0}, {"measurement": "Plant response rating, Goosegrass", "setting": "goosegrass [14]; [21]", "result": 0}, {"measurement": "Plant response rating, Goosegrass", "setting": "goosegrass [14]; [22]", "result": 0}, {"measurement": "Corn plant response rating", "setting": "corn [15]; [23]", "result": 0}, {"measurement": "Plant response rating, Corn", "setting": "corn [15]; [24]", "result": 0}, {"measurement": "Plant response rating, Sedge, Umbrella", "setting": "sedge, umbrella", "result": 0}, {"measurement": "Plant response rating, Foxtail, Giant", "setting": "foxtail, giant [16]; [21]", "result": 0}, {"measurement": "Plant response rating, Foxtail, Giant", "setting": "foxtail, giant [16]; [22]", "result": 0}, {"measurement": "Ryegrass, Italian plant response rating", "setting": "ryegrass, Italian [17]; [23]", "result": 0}, {"measurement": "Plant response rating, Ryegrass, Italian", "setting": "ryegrass, Italian [17]; [24]", "result": 0}, {"measurement": "Plant response rating, Barnyardgrass", "setting": "barnyardgrass", "result": 0}, {"measurement": "Soybean plant response rating", "setting": "soybean [18]; [23]", "result": 20}, {"measurement": "Plant response rating, Soybean", "setting": "soybean [18]; [24]", "result": 20}, {"measurement": "Blackgrass plant response rating", "setting": "blackgrass [19]; [23]", "result": 0}, {"measurement": "Plant response rating, Blackgrass", "setting": "blackgrass [19]; [24]", "result": 0}, {"measurement": "Kochia plant response rating", "setting": "kochia; [23]", "result": 0}, {"measurement": "Plant response rating, Kochia", "setting": "kochia; [24]", "result": 20}, {"measurement": "Oat, Wild plant response rating", "setting": "oat, wild [20]; [23]", "result": 0}, {"measurement": "Plant response rating, Oat, Wild", "setting": "oat, wild [20]; [24]", "result": 0}]}
